Like-named read-outs stand apart in the source and are kept apart here.
Columns and labels:
[1] = tested on: GM05162 Duchenne muscular dystrophy human cell line; assay: Functional Mitochondrial Toxicity Assay (GM05162); assay type: cell-based
Procedure: (§1) The present Examples interrogate the two major energy producing pathways in the cell, mitochondrial respiration and glycolysis. HepG2 human liver cancer cell lines were dosed with test compounds and in real time the extracellular oxygen levels and pH were measured using the XFe96 flux analyser (Seahorse Biosciences). XFe Technology uses solid-state sensors to simultaneously measure both oxygen consumption rate (OCR) and extracellular acidification rate (ECAR) to determine effects on oxidative phosphorylation (OXPHOS) and glycolysis simultaneously. The cells were then subjected to sequential exposure to various inhibitors of mitochondrial functional to assess cellular metabolism.
(§2) A positive mitochondrial active compound is determined when there is a change in OCR or ECAR in the absence of cytotoxicity. Cytotoxicity was determined when both oxidative phosphorylation (OCR) and glycolysis (ECAR) were inhibited.
(§3) OCR is a measurement of oxygen content in extracellular media. Changes in OCR indicate effects on mitochondrial function, and can be bi-directional. A decrease is due to an inhibition of mitochondrial respiration, whilst an increase may indicate an uncoupler, in which respiration is not linked to energy production.
(§4) ECAR is the measurement of extracellular proton concentration (pH). An increase in signal means an increase in rate in number of pH ions (Thus decreasing pH value), and seen as an increase in glycolysis. Expressed as a fraction of basal control (rate prior to addition of compound).
(§5) Reverse capacity is the measured ability of cells to respond to an increase in energy demand, a reduction indicates mitochondrial dysfunction.
(§6) The Mitochondrial Stress Test is a series of sequential additions of compounds to the cells to assess a bioenergetics profile, and effects of test compounds on parameters such as proton leak and research capacity. This was used to assist in understanding potential mechanisms of mitochondrial toxicity. For example, it involves the addition of the follow compounds in this order:
The present Example interrogates the two major energy producing pathways in the cell, mitochondrial respiration and glycolysis. A GM05162 Duchenne muscular dystrophy human cell line was dosed with test compound I-17 using the general protocol outlined in Example 2 above.

[2] = tested on: HepG2 human liver cancer cell line; assay: Functional Mitochondrial Toxicity Assay, XFe96 Seahorse (HepG2); assay type: cell-based; settings: HepG2
Procedure: as §1, §2, §3, §4, §5, §6
Oligomycin is a known inhibitor of ATP synthase, and prevents the formation of ATP. This provides a measurement of the amount of oxygen consumption related to ATP production and ATP turnover. The addition of Oligomycin results in a decrease in OCR under normal conditions, and residual OCR is related to the natural proton leak.
Carbonyl cyanide 4-(trifluoromethoxy)phenylhydrazine (FCCP) is a protonphore, and is a known uncoupler of oxygen consumption from ATP production. This allows the maximum achievable transfer of electrons and oxygen consumption rate, and provides a measurement of reserve capacity.
Rotenone and antimycin A are known inhibitors of complex I and III of the electron transport chain, respectively. This inhibits electron transport completely, and any residual oxygen consumption is due to non-mitochondrial activity via oxygen requiring enzymes.

[3] = tested on: GM01061 Huntington Disease human cell line; assay: Functional Mitochondrial Toxicity Assay (GM01061); assay type: cell-based
Procedure: as §1, §2, §3, §4, §5, §6
The present Example interrogates the two major energy producing pathways in the cell, mitochondrial respiration and glycolysis. A GM01061 Huntington Disease human cell line was dosed with test compound I-39 using the general protocol outlined in Example 2 above.

[4] = tested on: GM01299 propionic acidemia human cell line; assay: Functional Mitochondrial Toxicity Assay (GM01299); assay type: cell-based
Procedure: as §1, §2, §3, §4, §5, §6
The present Example interrogates the two major energy producing pathways in the cell, mitochondrial respiration and glycolysis. A GM01299 propionic acidemia human cell line was dosed with test compound I-17 using the general protocol outlined in Example 2 above.

[5] = tested on: GM16548 Rett syndrome human cell line; assay: Functional Mitochondrial Toxicity Assay (GM16548); assay type: cell-based
Procedure: as §1, §2, §3, §4, §5, §6
The present Example interrogates the two major energy producing pathways in the cell, mitochondrial respiration and glycolysis. A GM16548 Rett syndrome human cell line was dosed with test compound I-39 using the general protocol outlined in Example 2 above.

mitochondria [6] = settings: US 2004/0248808, U.S. Pat. No. 7,718,620; cited from earlier work
[7] = Szeto et al. 2013; cited from earlier work
mitochondria [8] = settings: cited from earlier work
[9] = tested on: immortalized human trabecular meshwork (iHTM) cells; settings: Chen et al. 2011; cited from earlier work
[10] = tested on: glaucomatous human trabecular meshwork (GTM3) cells; settings: Chen et al. 2011; cited from earlier work
[11] = read-out: Reserve Capacity AC50

| Molecule | Potential Mechanism [1] | AC50 ([1]; read-out: ECAR AC50) [µM] | AC50 [1, 11] [µM] | Potential Mechanism [2] | Reserve Capacity MEC [2] [µM] | Reserve Capacity ↑↓ [2] | AC50 ([2]; read-out: ECAR AC50) [µM] | AC50 ([2]; read-out: OCR AC50) [µM] | AC50 [2, 11] [µM] | Potential Mechanism [3] | AC50 ([3]; read-out: ECAR AC50) [µM] | AC50 [3, 11] [µM] | Potential Mechanism [4] | Reserve Capacity MEC [4] [µM] | Reserve Capacity ↑↓ [4] | Potential Mechanism [5] | Reserve Capacity MEC [5] [µM] | Reserve Capacity ↑↓ [5] | AC50 ([5]; read-out: ECAR AC50) [µM] | AC50 [5, 11] [µM] | other results |
| --- | --- | --- | --- | --- | --- | --- | --- | --- | --- | --- | --- | --- | --- | --- | --- | --- | --- | --- | --- | --- | --- |
| CC(O)CC(=O)O (stereo not drawn) [β-OHB] | Other | > 100 | 69.5 | Other | 53.0 | ↑ | > 100 | > 100 | > 100 | Other | > 100 | > 100 | Other | 25.3 | ↑ | Other | 23.1 | ↑ | > 100 | 72.2 | Reserve Capacity MEC [1]: 1.15 µM; Reserve Capacity ↑↓ [1]: ↑; Reserve Capacity MEC [3]: 81.1 µM; Reserve Capacity ↑↓ [3]: ↑; AC50 ([3]; read-out: OCR AC50): > 100 µM; ECAR MEC [4]: 89.8 µM; ECAR ↑↓ [4]: ↓; AC50 ([4]; read-out: ECAR AC50): > 100 µM; AC50 ([4]; read-out: OCR AC50): > 100 µM; AC50 [4, 11]: > 100 µM |
| (D-Phe)(D-Orn)(D-Tyr)(D-Orn)-NH2 [Peptide I-39] |  |  |  | Other |  | ↑ | > 100 | > 100 | > 100 | No effect | > 100 | > 100 |  |  |  | Other | 60.2 | ↑ | > 100 | > 100 | ECAR ↑↓ [2]: ↓; ECAR MEC ([2]; listed as I-39(1)): 30.1 µM; Reserve Capacity MEC ([2]; listed as I-39(1)): 92.4 µM; ECAR MEC ([2]; listed as I-39(2)): 15.3 µM; Reserve Capacity MEC ([2]; listed as I-39(2)): 67.6 µM; ECAR MEC ([2]; listed as I-39(3)): 21.2 µM; Reserve Capacity MEC ([2]; listed as I-39(3)): 77.3 µM; AC50 ([5]; read-out: OCR AC50): > 100 µM |
| O=C(O)CCC(=O)O [Succinate] | Other | 2.91 | > 100 | Uncoupler | 62.5 | ↑ | > 100 | > 100 | > 100 | No effect | > 100 | > 100 | Other | 38.2 | ↑ | Other | 72.3 | ↑ | > 100 | > 100 | ECAR MEC [1]: 0.179 µM; ECAR ↑↓ [1]: ↑; OCR MEC [2]: 74.8 µM; OCR ↑↓ [2]: ↑; AC50 ([4]; read-out: ECAR AC50): > 100 µM; AC50 ([4]; read-out: OCR AC50): > 100 µM; AC50 [4, 11]: > 100 µM; AC50 ([5]; read-out: OCR AC50): > 100 µM |
| (D-Arg)(L-Dmt)(L-Lys)(L-Phe)-NH2 [Peptide I-1, reference compound] |  |  |  |  |  | ↑ |  | > 100 |  |  |  |  |  |  |  |  |  |  |  |  | number of mitochondria undergoing MPT (mitochondria [6]): significantly reduce; binding to cardiolipin within the inner mitochondria membrane [7]: binding to cardiolipin; reactive oxygen species (ROS) in the mitochondria (mitochondria [8]): reduces; ECAR ↑↓ [2]: ↓; Potential Mechanism ([2]; listed as I-1 (1)): No effect; AC50 ([2]; listed as I-1 (1), read-out: ECAR AC50): > 100 µM; AC50 ([2]; listed as I-1 (1), read-out: Reserve Capacity AC50): > 100 µM; ECAR MEC ([2]; listed as I-1 (2)): 14.3 µM; Potential Mechanism ([2]; listed as I-1 (2)): Other; Reserve Capacity MEC ([2]; listed as I-1 (2)): 90.3 µM; AC50 ([2]; listed as I-1 (2), read-out: ECAR AC50): > 100 µM; AC50 ([2]; listed as I-1 (2), read-out: Reserve Capacity AC50): > 100 µM; sustained oxidative stress induced by H2O2 [9]: prevent; sustained oxidative stress induced by H2O2 [10]: prevent |
